The subject of experiment [1] is TBI induced anxiety-like behavior (LFPI rats). In words: Freezing in a novel context after LFPI and foot shock, post-injury ibudilast (Example 1, FIG. 1). Format: in vivo, Sprague-Dawley rats. How it is done:
Twenty-four adult viral-free male Sprague-Dawley rats (275-325 g; Harlan Laboratories, Madison, Wis.) were housed in pairs in temperature (23±3° C.) and light (12:12 light:dark) controlled rooms with ad libitum access to food and water. All procedures were performed in accordance with University of Colorado Institutional Animal Care and Use Committee guidelines for the humane use of laboratory rats in biological research. Rats were randomly assigned to 1 of 4 groups (n=6/group; Sham-operated/vehicle-injected, Sham-operated/ibudilast-injected, LFPI/vehicle-injected, LFPI/ibudilast-injected). All rats were shocked approximately 2 weeks following LFPI to enhance freezing behavior in a novel context (a natural fear reaction in this species). After freezing behavior had been established (1 month post-injury) animals were subjected to a 5-day regimen of ibudilast or vehicle (corn oil) injections (once daily for 5 days). Freezing behavior was again assessed at 2 weeks, 1 month, 2 months, and at 3 months post-injection. Lateral Fluid Percussion Injury. LFPI rats were anesthetized with halothane (4% induction, 2.0-2.5% maintenance) and mounted in a stereotaxic frame. The lateral fluid percussion injury used in this study utilized a PV820 Pneumatic PicoPump (World Precision Instruments, Inc., Sarasota, Fla.) to deliver standardized pressure pulses of air to a standing column of fluid. A 3.0 mm diameter craniotomy was centered at 3 mm caudal to bregma and 4.0 mm lateral of the sagittal suture, with the exposed dura remaining intact. A female Luer-Loc hub (inside diameter of 3.5 mm) was secured over the craniotomy with cyanoacrylate adhesive. Following hub implantation, the animal was removed from the stereotaxic frame and connected to the LFPI apparatus. […] Weight was recorded prior to each dosing. […] Rats were tested (5 minutes) and the percent of freezing behavior was assessed. Freezing was defined as the absence of movement except for heart beat/respiration, and was recorded in 10 sec intervals. Statistical Analyses: Results are expressed as mean±SEM. […]

Experiment [2] has the same test system. In words: Freezing in shock chamber after fear conditioning, peri-injury ibudilast (Example 2, FIG. 2). Format: in vivo. Conditions: 10 mg/kg in corn oil, 5 days (2 days before LFPI, day of LFPI, 2 days after); 1 and 3 months post-injury. As for the experimental part:
All animals were fear conditioned by receiving shock (1.5 mA; 3-sec) immediately upon being placed in an experimental chamber. Freezing behavior was then measured the following day upon being replaced in the same chamber. Naïve (no surgical procedures) and Sham (LFPI surgery without pressure pulse) froze at a typical rate of approximately 15-20% when measured at 1 and 3 months post-injury (FIG. 2). In contrast, cohorts who received LFPI froze approximately 3 times as long at both time points.

Experiment [3] has as its system TBI induced anxiety-like behavior (LFPI animals). In words: Freezing in a novel context, shock at 1 month post-injury, peri-injury MN166 (Example 3, FIG. 3B). It counts as in vivo, rats. To be noted: 10 mg/kg s.c. 5 days peri-injury. From the text: Freezing behavior in rats was elicited substantially in the manner described before. When freezing behavior was made the dependent variable after placement in a novel context, large and stable differences between Naïve and LFPI animals were seen (FIG. 3). LFPI animals froze approximately 20-40% of the time compared to 5-10% for Naïve animals (FIG. 3A). Increased freezing behavior in LFPI compared to Naïve animals was significant at all time points (p<0.001). […] These animals included Naïve and LFPI groups as in FIG. 3A, but also LFPI+MN166 (Animals received a 5-day dosing regimen in which they received once-daily ibudilast injections 24 hr prior to LFPI, the day of surgery and LFPI, and 3 days following LFPI (10 mg/kg, 1 ml/kg subcutaneously in corn oil)) and a Sham surgery group. Overall, LFPI animals froze substantially more than Naïve, LFPI+MN166, and Sham groups at the 1, 2 and 3 month time points (p<0.001). Similar to the animals of FIG. 3A, at 2 weeks and 1 month post-injury, LFPI animals froze approximately 20-30% of the time in the novel context compared to approximately 5% for Naïve animals (p<0.001).

Experiment [4] shares this test system. In words: Freezing in test chamber after immediate shock, peri-injury MN166 (Example 3, FIG. 4B). To be noted: 1 and 3 months post-injury, untreated LFPI approximately 60% (p<0.003 and 0.0001). Format: in vivo, rats. The source says:
Animals with LFPI froze approximately 3-4 times longer (30-40%) than Naïve animals (<10%) when placed in the test chamber (FIG. 4A). […] However, LFPI animals froze substantially more (approximately 60%) after shock compared to LFPI animals receiving no shock (30-35%; p<0.001 and 0.003, respectively). […] LFPI animals consistently froze more than all other groups, at all time points, with or without shock. […] However, by 3 months this difference was no longer significant (p<0.493).

The source of these data is patent publication US20120302526A1, “METHODS FOR TREATING POST-TRAUMATIC STRESS DISORDER” (Regents of the University of Colorado, a body corporate, priority 2011, published 2012).

Molecules are shown by their SMILES.

`CC(C)C(=O)c1c(C(C)C)nn2ccccc12` [Ibudilast, 2-Methyl-1-[2-(1-methylethyl)pyrazolo[1,5-a]pyridin-3-yl]-1-propanone]: the “freezing behavior of treated LFPI rats vs untreated LFPI rats” value in experiment [1] (LFPI rats, 10 mg/kg s.c. once daily for 5 days at 1 month post-injury, up to 3 months post-treatment, p<0.01) is “froze substantially less”. Besides, the “freezing compared to untreated injured animals” value in experiment [1] (LFPI rats, 10 mg/kg s.c. once daily for 5 days, started 1 month post-injury, P<0.05) is “about 60%”. In addition, the “influence on freezing of control animals” value in experiment [1] (Sham-operated rats, 10 mg/kg s.c. once daily for 5 days, all post-injection time-points) was “no influence on control animals”. In addition, the “freezing behavior vs LFPI animals receiving vehicle injections” value in experiment [2] is recorded as “substantially less”. Also, the “percent freezing in novel context” value in experiment [3] (3 months post-injury, untreated LFPI 50%, Naïve 8%, Sham 10%) was determined as 14%. Moreover, the “freezing compared to untreated LFPI animals, novel context” value in experiment [3] (significant at 1, 2 and 3 months post-injury (p<0.01, 0.001, 0.0001)) is “greatly reduced freezing”. For the same compound, in experiment [4], the “percent freezing in test chamber after shock” value is 25-35%.
